Test results from ChEMBL document CHEMBL3885861, “Open TG-GATES”.

Organism: Rattus norvegicus
Experiment: Open TG-GATES - Regimen: Daily Repeat
Format: toxicity, organism-based, Sprague-Dawley
Set-up: regimen Daily Repeat, gender Male, age 6 weeks
Settings: in vivo, po, 100 mg/kg, route gavage, dose level Low; for APTT / Bas / Eos / Fbg / Hb / Ht / Lym / MCH / MCHC / MCV / Mono / Neu / PT / Plat / RBC / Ret / WBC: tissue Blood; for KIDNEY_L / KIDNEY_R / KIDNEY_TOTAL: tissue Kidney; for LIVER: tissue Liver; for A/G / ALP / ALT / AST / BUN / CRE / Ca / Cl / DBIL / GLC / IP / K / LDH / Na / PL / RALB / TBIL / TC / TG / TP / gamma-GTP: tissue Plasma

SMILES: CNC(=C[N+](=O)[O-])NCCSCc1ccc(CN(C)C)o1 [RANITIDINE]
- TERMINAL_BW (72 h, time 3 day): 232 g
- APTT (72 h, time 3 day): 19.5 s
- Bas (72 h, time 3 day): 0%
- Eos (72 h, time 3 day): 1.4%
- Fbg (72 h, time 3 day): 221.4 mg/dL
- Hb (72 h, time 3 day): 14 g/dL
- Ht (72 h, time 3 day): 40.9%
- Lym (72 h, time 3 day): 78.6%
- MCH (72 h, time 3 day): 21.7 pg
- MCHC (72 h, time 3 day): 34.2%
- MCV (72 h, time 3 day): 63.3 fL
- Mono (72 h, time 3 day): 2.6%
- Neu (72 h, time 3 day): 15.8%
- PT (72 h, time 3 day): 11.9 s
- Plat (72 h, time 3 day): 129.9 x10_4/uL
- RBC (72 h, time 3 day): 646.4 x10_4/ul
- Ret (72 h, time 3 day): 5.2%
- WBC (72 h, time 3 day): 75.1 x10_2/uL
- KIDNEY_L (72 h, time 3 day): 1 g
- KIDNEY_R (72 h, time 3 day): 1 g
- KIDNEY_TOTAL (72 h, time 3 day): 2 g
- LIVER (72 h, time 3 day): 11.2 g
- A/G (72 h, time 3 day): 1.6
- ALP (72 h, time 3 day): 970 IU/L
- ALT (72 h, time 3 day): 34.6 IU/L
- AST (72 h, time 3 day): 63.6 IU/L
- BUN (72 h, time 3 day): 15.6 mg/dL
- CRE (72 h, time 3 day): 0.4 mg/dL
- Ca (72 h, time 3 day): 10.8 mg/dL
- Cl (72 h, time 3 day): 103.8 meq/L
- DBIL (72 h, time 3 day): 0.086 mg/dL
- GLC (72 h, time 3 day): 192.8 mg/dL
- IP (72 h, time 3 day): 7.4 mg/dL
- K (72 h, time 3 day): 4.1 meq/L
- LDH (72 h, time 3 day): 185.2 IU/L
- Na (72 h, time 3 day): 141.4 meq/L
- PL (72 h, time 3 day): 152.6 mg/dL
- RALB (72 h, time 3 day): 3.5 g/dL
- TBIL (72 h, time 3 day): 0.1 mg/dL
- TC (72 h, time 3 day): 82.2 mg/dL
- TG (72 h, time 3 day): 80 mg/dL
- TP (72 h, time 3 day): 5.7 g/dL
- gamma-GTP (72 h, time 3 day): 1 IU/L
- TERMINAL_BW ([…], time 7 day): 264.8 g
- TERMINAL_BW ([…], time 14 day): 314.1 g
- TERMINAL_BW ([…], time 28 day): 381.6 g
- APTT ([…], time 7 day): 19.8 s
- Bas ([…], time 7 day): 0%
- Eos ([…], time 7 day): 1%
- Fbg ([…], time 7 day): 233.2 mg/dL
- Hb ([…], time 7 day): 14 g/dL
- Ht ([…], time 7 day): 39.9%
- Lym ([…], time 7 day): 81.8%
- MCH ([…], time 7 day): 21.8 pg
- MCHC ([…], time 7 day): 35.2%
- MCV ([…], time 7 day): 62.1 fL
- Mono ([…], time 7 day): 2.6%
- Neu ([…], time 7 day): 13.6%
- PT ([…], time 7 day): 12.3 s
- Plat ([…], time 7 day): 127.2 x10_4/uL
- RBC ([…], time 7 day): 643.2 x10_4/ul
- Ret ([…], time 7 day): 5.2%
- WBC ([…], time 7 day): 99.9 x10_2/uL
- APTT ([…], time 14 day): 19.6 s
- Bas ([…], time 14 day): 0%
- Eos ([…], time 14 day): 0.8%
- Fbg ([…], time 14 day): 243.8 mg/dL
- Hb ([…], time 14 day): 14.7 g/dL
- Ht ([…], time 14 day): 40.9%
- Lym ([…], time 14 day): 78.6%
- MCH ([…], time 14 day): 21.7 pg
- MCHC ([…], time 14 day): 36%
- MCV ([…], time 14 day): 60.4 fL
- Mono ([…], time 14 day): 2%
- Neu ([…], time 14 day): 16.4%
- PT ([…], time 14 day): 11.9 s
- Plat ([…], time 14 day): 101 x10_4/uL
- RBC ([…], time 14 day): 678 x10_4/ul
- Ret ([…], time 14 day): 4%
- WBC ([…], time 14 day): 109.6 x10_2/uL
- APTT ([…], time 28 day): 20.9 s
- Bas ([…], time 28 day): 0.2%
- Eos ([…], time 28 day): 1%
- Fbg ([…], time 28 day): 228.8 mg/dL
- Hb ([…], time 28 day): 15.7 g/dL
- Ht ([…], time 28 day): 45.1%
- Lym ([…], time 28 day): 82.6%
- MCH ([…], time 28 day): 19.8 pg
- MCHC ([…], time 28 day): 34.9%
- MCV ([…], time 28 day): 56.5 fL
- Mono ([…], time 28 day): 1.8%
- Neu ([…], time 28 day): 12.8%
- PT ([…], time 28 day): 12.2 s
- Plat ([…], time 28 day): 103.7 x10_4/uL
- RBC ([…], time 28 day): 797.4 x10_4/ul
- Ret ([…], time 28 day): 1.8%
- WBC ([…], time 28 day): 119.7 x10_2/uL
- KIDNEY_L ([…], time 7 day): 1.1 g
- KIDNEY_R ([…], time 7 day): 1.1 g
- KIDNEY_TOTAL ([…], time 7 day): 2.2 g
- KIDNEY_L ([…], time 14 day): 1.2 g
- KIDNEY_R ([…], time 14 day): 1.2 g
- KIDNEY_TOTAL ([…], time 14 day): 2.4 g
- KIDNEY_L ([…], time 28 day): 1.4 g
- KIDNEY_R ([…], time 28 day): 1.3 g
- KIDNEY_TOTAL ([…], time 28 day): 2.7 g
- LIVER ([…], time 7 day): 12.5 g
- LIVER ([…], time 14 day): 14.7 g
- LIVER ([…], time 28 day): 15.5 g
- A/G ([…], time 7 day): 1.5
- ALP ([…], time 7 day): 852.4 IU/L
- ALT ([…], time 7 day): 32.4 IU/L
- AST ([…], time 7 day): 61.2 IU/L
- BUN ([…], time 7 day): 17.8 mg/dL
- CRE ([…], time 7 day): 0.4 mg/dL
- Ca ([…], time 7 day): 10.8 mg/dL
- Cl ([…], time 7 day): 103 meq/L
- DBIL ([…], time 7 day): 0.1 mg/dL
- GLC ([…], time 7 day): 223.6 mg/dL
- IP ([…], time 7 day): 7.9 mg/dL
- K ([…], time 7 day): 3.9 meq/L
- LDH ([…], time 7 day): 174.4 IU/L
- Na ([…], time 7 day): 139.6 meq/L
- PL ([…], time 7 day): 149.2 mg/dL
- RALB ([…], time 7 day): 3.4 g/dL
- TBIL ([…], time 7 day): 0.2 mg/dL
- TC ([…], time 7 day): 73.2 mg/dL
- TG ([…], time 7 day): 125.4 mg/dL
- TP ([…], time 7 day): 5.6 g/dL
- gamma-GTP ([…], time 7 day): 1.2 IU/L
- A/G ([…], time 14 day): 1.4
- ALP ([…], time 14 day): 793 IU/L
- ALT ([…], time 14 day): 35.6 IU/L
- AST ([…], time 14 day): 63.2 IU/L
- BUN ([…], time 14 day): 16.4 mg/dL
- CRE ([…], time 14 day): 0.5 mg/dL
- Ca ([…], time 14 day): 10.7 mg/dL
- Cl ([…], time 14 day): 103.6 meq/L
- DBIL ([…], time 14 day): 0.1 mg/dL
- GLC ([…], time 14 day): 190.4 mg/dL
- IP ([…], time 14 day): 6.9 mg/dL
- K ([…], time 14 day): 3.9 meq/L
- LDH ([…], time 14 day): 180 IU/L
- Na ([…], time 14 day): 142 meq/L
- PL ([…], time 14 day): 159.4 mg/dL
- RALB ([…], time 14 day): 3.5 g/dL
- TBIL ([…], time 14 day): 0.2 mg/dL
- TC ([…], time 14 day): 75.6 mg/dL
- TG ([…], time 14 day): 152 mg/dL
- TP ([…], time 14 day): 6 g/dL
- gamma-GTP ([…], time 14 day): 1.2 IU/L
- A/G ([…], time 28 day): 1.3
- ALP ([…], time 28 day): 621.4 IU/L
- ALT ([…], time 28 day): 32.8 IU/L
- AST ([…], time 28 day): 63.4 IU/L
- BUN ([…], time 28 day): 17.2 mg/dL
- CRE ([…], time 28 day): 0.5 mg/dL
- Ca ([…], time 28 day): 10.3 mg/dL
- Cl ([…], time 28 day): 103.2 meq/L
- DBIL ([…], time 28 day): 0.094 mg/dL
- GLC ([…], time 28 day): 220.2 mg/dL
- IP ([…], time 28 day): 6.6 mg/dL
- K ([…], time 28 day): 3.6 meq/L
- LDH ([…], time 28 day): 164.4 IU/L
- Na ([…], time 28 day): 141.4 meq/L
- PL ([…], time 28 day): 138.4 mg/dL
- RALB ([…], time 28 day): 3.5 g/dL
- TBIL ([…], time 28 day): 0.2 mg/dL
- TC ([…], time 28 day): 65.2 mg/dL
- TG ([…], time 28 day): 107.2 mg/dL
- TP ([…], time 28 day): 6.3 g/dL
- gamma-GTP ([…], time 28 day): 1.2 IU/L
